tested on: mAb 806 binding to immobilized 1-501 EGFR fragment; experiment: ELISA, peptide inhibition of mAb […] binding to 1-501 EGFR; design: species or system human; conditions: peptide in solution, increasing concentrations

Row | Substance | inhibition of mAb […] binding to immobilized 1-501 fragment (ELISA)
1 | CGADSYEMEEDG (epitope peptide) [287-298 EGFR peptide] | did not inhibit

tested on: mAb 806 binding to immobilized 501-Fc; experiment: ELISA, peptide inhibition of mAb […] binding to 501-Fc; design: species or system human; conditions: increasing concentrations of peptide

Row | Substance | inhibition of mAb […] binding to 501-Fc (ELISA)
2 | CGADSYEM (epitope peptide) [N-terminal fragment from cyanogen bromide cleavage of the 287-302 peptide] | incapable of inhibiting
3 | EEGVRKC (epitope peptide) [C-terminal (EEGVRKC), C-terminal fragment from cyanogen bromide cleavage of the 287-302 peptide] | incapable of inhibiting

tested on: mAb 806 binding to immobilized 287-302 EGFR peptide; experiment: BIAcore, soluble EGFR peptides blocking mAb […] binding; design: species or system human; conditions: mAb […] 500 nM; soluble peptide 5 and 10 μM; amine coupling
Description: Analysis of mAb 806 binding to peptides by BIAcore. […] Binding affinity was then determined by Scatchard analysis (insert).
A BIAcore 3000 was used for all experiments. The peptides containing the putative mAb 806 epitope were immobilised on a CM5 sensor chip using amine or thiol-disulphide exchange coupling at a flow rate of 5 μl/min (34). The 806 antibody was passed over the sensor surface at a flow rate of 5 μl/min at 25° C. The surfaces were generated between runs by injecting 10 mM HCl at a flow rate of 10 μl/min.

Row | Substance | inhibition of mAb […] binding to immobilized 287-302 EGFR peptide (BIAcore)
4 | CGADSYEMEEDG (epitope peptide) [287-298 EGFR peptide] | unable to prevent binding
5 | CGADSYEMEEDGVRK (epitope peptide) [287-301 EGFR peptide] | weakly inhibit

tested on: mAb 806; experiment: Binding of yeast surface displayed EGFR 273-621 point mutants to mAb […] (flow cytometry); design: species or system mouse; key: ++ indicates wild type binding; +, intermediate binding; −, binding equal to negative control; conditions: EGFR Mutant (Library), 273-621 on yeast; 75 nM 806
Description: Out of 100 clones sequenced, roughly 20% contained multiple mutations and were omitted from subsequent analysis. […] All mutations are localized to the disulfide-bonded loop between cysteines 287 and 302, as has been previously determined (34). […] To verify the results from the fine epitope mapping library, alanine scanning through site-directed mutagenesis (SDM) was performed on the entire loop 287-302 (TABLE 7, right column). All sites with loss of binding by alanine scanning (287, 293, 298, and 302) correspond to mutants isolated from the library. […] Since an average of 6-7 amino acid substitutions are accessible by single nucleotide mutagenesis, a larger range of physicochemical diversity can be sampled compared to alanine scanning. […] The C287R substitution raises this dissociation constant to 127 nM (68% confidence interval of 103-160 nM), which gives a ΔΔG value of +2.4 kcal/mol when compared to wild-type and, in alanine scanning terms, is an intermediate loss of binding (36).
The epitope mapping library was constructed using the Stratagene GeneMorph® random mutagenesis kit to give a low mutagenesis rate. The template used for library construction was a pCT302 backbone containing EGFR fragment 273-621, with a C283A mutation to prevent disulfide mispairing, inserted for yeast display (27). The PCR products were gel purified and extracted using a Qiagen Qiaquick gel extraction kit. The library was transformed into Saccharomyces cerevisiae strain EBY100 (28) by electroporation (40) and homologous recombination (41) using a Bio-Rad (Richmond, Calif.) Gene Pulser Transfection Apparatus. […] Growth and expression of the library using yeast surface display was performed as previously described (28).
Anti-c-myc chicken IgY fraction was purchased from Molecular Probes (Eugene, Oreg.). An appropriate number of yeast cells (at least 10× library size) were washed with FACS buffer (phosphate buffered saline containing 1 mg/ml bovine serum albumin). The cells were incubated with 4 μg/ml anti-c-myc chicken IgY and the appropriate concentration of mAb for 30 min at 25° C. The cells were then washed with FACS buffer and incubated with 1:25 dilution phycoerythrin-labeled goat anti-mouse IgG (Sigma) and 1:100 dilution Alexa Fluor® 488 goat anti-chicken IgG (Molecular Probes) for 30 min at 4° C. The labeled cells were rinsed, and cell libraries were sorted using a MoFlo FACS machine at the MIT flow cytometry core facility.
Plasmids from the sorted library populations were recovered using Zymoprep™ and sequenced at the MIT Biopolymers Laboratory. Site-directed mutants were made using QuickChange® site-directed mutagenesis (Stratagene). Single clones were transformed into yeast using EZ Yeast Transformation (Zymo Research) and grown in minimal media (yeast nitrogen base, casein hydrolysate, dextrose, and phosphate buffer pH 7.4) overnight. Yeast surface protein expression was induced by transferring to minimal media with galactose and incubating overnight. For each clone, 1×10^6 cells were labeled as before with anti-c-myc chicken IgY, the appropriate mAb, and secondary fluorescent antibodies. Fluorescence data was obtained using a Coulter Epics XL flow cytometer (Beckman-Coulter) and was analyzed using DakoCytomation Summit™ software

Row | Substance | mAb […] Binding
6 | C287G: yeast displayed EGFR 273-621 point mutant from library | +
7 | C287R: yeast displayed EGFR 273-621 point mutant from library | +
8 | C287S: yeast displayed EGFR 273-621 point mutant from library | +
9 | C287W: yeast displayed EGFR 273-621 point mutant from library | +
10 | C287Y: yeast displayed EGFR 273-621 point mutant from library | +
11 | C302F: yeast displayed EGFR 273-621 point mutant from library | +
12 | C302G: yeast displayed EGFR 273-621 point mutant from library | −
13 | C302R: yeast displayed EGFR 273-621 point mutant from library | +
14 | C302S: yeast displayed EGFR 273-621 point mutant from library | −
15 | C302Y: yeast displayed EGFR 273-621 point mutant from library | +
16 | D297Y: yeast displayed EGFR 273-621 point mutant from library | +
17 | E293D: yeast displayed EGFR 273-621 point mutant from library | +
18 | E293G: yeast displayed EGFR 273-621 point mutant from library | +
19 | E293K: yeast displayed EGFR 273-621 point mutant from library | −
20 | G298D: yeast displayed EGFR 273-621 point mutant from library | −
21 | G298S: yeast displayed EGFR 273-621 point mutant from library | −
22 | K301E: yeast displayed EGFR 273-621 point mutant from library | +
23 | R300C: yeast displayed EGFR 273-621 point mutant from library | +
24 | R300P: yeast displayed EGFR 273-621 point mutant from library | −

same assay, conditions: EGFR Mutant (SDM) in loop 287-302, 273-621 on yeast; 75 nM 806

Row | Substance | mAb […] Binding
25 | A289K: yeast displayed EGFR 273-621 site-directed mutant | ++
26 | C287A: yeast displayed EGFR 273-621 site-directed mutant | +
27 | C302A: yeast displayed EGFR 273-621 site-directed mutant | −
28 | D290A: yeast displayed EGFR 273-621 site-directed mutant | ++
29 | D297A: yeast displayed EGFR 273-621 site-directed mutant | ++
30 | E293A: yeast displayed EGFR 273-621 site-directed mutant | +
31 | E295A: yeast displayed EGFR 273-621 site-directed mutant | ++
32 | E296A: yeast displayed EGFR 273-621 site-directed mutant | ++
33 | G288A: yeast displayed EGFR 273-621 site-directed mutant | ++
34 | G298A: yeast displayed EGFR 273-621 site-directed mutant | +
35 | K301A: yeast displayed EGFR 273-621 site-directed mutant | ++
36 | M294A: yeast displayed EGFR 273-621 site-directed mutant | ++
37 | R300A: yeast displayed EGFR 273-621 site-directed mutant | ++
38 | S291A: yeast displayed EGFR 273-621 site-directed mutant | ++
39 | V299A: yeast displayed EGFR 273-621 site-directed mutant | ++
40 | V299D: yeast displayed EGFR 273-621 site-directed mutant | −
41 | V299K: yeast displayed EGFR 273-621 site-directed mutant | ++
42 | Y292A: yeast displayed EGFR 273-621 site-directed mutant | ++

same assay, conditions: wild-type EGFR 273-621 on yeast; 75 nM 806

Row | Substance | mAb […] binding score
43 | wild-type 273-621: yeast surface displayed wild-type EGFR fragment 273-621 | ++

Reference: patent publication US8652473B2, “Antibodies to EGF receptor epitope peptides and uses thereof” (Ludwig Institute for Cancer Research Ltd., priority 2004, dated 2014)
